Reference: publication PMC7064328 (Environmental Health Perspectives, 2020)
Values joined by “and” are separate entries in the source; they are usually repeats but may differ in a detail not shown here. Equal entries are not always repeated.

Experiments:
Assay type in all cases: in vivo, mouse (CD-1)
Pregnant CD-1 mice [1] = assay: Maternal indices: dam body weight, gestational weight gain, liver and kidney weight after daily oral gavage E1.5 to E11.5 or E17.5; details: for E0.5 weight: baseline; for Relative GWG, E11.5 estimate (95% CI) / Relative GWG, E17.5 Estimate (95% CI) / Relative GWG, E11.5 Estimate (95% CI) relative to VC: adjusted for litter size
Experimental: Naïve female CD-1 mice between 7.5 and 15.5 wk of age from the NIEHS colony were bred in-house on a single night, and copulatory plug–positive females were identified on embryonic day (E) 0.5. Pregnant dams were singly housed in ventilated polypropylene cages and received nesting materials, National Institutes of Health (NIH)-31 diet (Zeigler Bros., Inc.) and reverse osmosis deionized (RODI) water ad libitum. Animals were housed in humidity- and temperature-controlled rooms with 25°C and 45–60% average humidity and standard 12-h light cycles. All animal procedures were approved by the NIEHS Animal Care and Use Committee (ASP #2017-0022).
PFOA and GenX dosing solutions were prepared in RODI water and administered to mice once daily via oral gavage. Daily doses were administered between 0700 and 0800 hours and adjusted to the BW of the mouse based on the previous day’s weight at a volume of 0.01mL/g BW. […] The dose of 1mg/kg BW/d PFOA, used in the mouse developmental toxicity study of [Lau et al. 2006], provided a lowest effect dose that was used to set the reference dose within the U.S. EPA’s drinking water lifetime health advisory level (HAL) of 70 ppt PFOA ([U.S. EPA 2016]).
This experiment was conducted over two blocks (Block 1 and Block 2) to achieve a total of n=11–13 litters per treatment group and sacrifice time point (E11.5 and E17.5). The experimental design of the second block was identical to the first block of the study, and experimental methods were similar but expanded upon to include more rigorous and detailed measurements. Copulatory plug–positive mice (E0.5) were weighed to obtain a baseline BW and placed into one of five groups. Once all mice were assigned to groups, mean BWs were calculated, and a few animals were reassigned so that mean BWs in each group were similar. This was done to avoid confounding effects of baseline BW. Treatment groups were then randomly assigned a color by using a random sequence generator. Experimenters and dosing technicians were blinded to the treatment group to which the color groups corresponded throughout the duration of the study, including at necropsy. […] Pregnant dams were dosed via oral gavage from E1.5 to E11.5 or from E1.5 to E17.5. […] The E11.5 early-gestation time point was selected because it overlaps a critical period of placental development in the mouse where the placenta undergoes vascularization with the uterine wall and chorioallantoic branching of vessels begins ([Watson and Cross 2005]). The E17.5 late-gestation time point was selected so that embryo weight changes that may be related to treatment would be evident.
(§1) On the day of necropsy, dams received daily oral gavage between 0700 and 0800 hours and were weighed and then euthanized humanely by swift decapitation, and serum was collected. In Block 1, necropsies were completed from 0800 to 1600 hours, and in Block 2, necropsies were completed from 0800 to 1200 hours. Serum from dams euthanized in Block 1 was snap frozen for internal dosimetry analyses. Serum and urine from Block 2 dams were reserved for clinical chemistry analyses. In both blocks, the uterus was removed, and total implantation sites were counted based on gross observation of an implantation nodule along the uterine horn. Viable embryos, nonviable embryos, and sites of resorption were counted based on gross observation. Embryos were considered viable if they were properly formed, were not pale in color, and were of similar size to neighboring embryos. Embryos that were poorly formed and pale in color (without heartbeat) were considered nonviable. Sites of resorption were defined as a dark red–appearing clot-like nodule apparent on gross observation.
From each uterus, first, viable embryos and their matched placentas were collected in succession within a horn and immediately snap frozen ( n=2–5 per litter ), and subsequent embryos were collected for growth measurements ( n=2–11 per litter ). […]

[2] = Litter parameters at necropsy (implantation sites, resorptions, viable and nonviable embryos); details: female, CD-1, mouse, in vivo, oral, percent of implantation sites
Experimental: as §1

Pregnant CD-1 mice [3] = assay: as above; details: for % nonviable / % resorbed: percent of implantation sites
Experimental: as §1

maternal liver = assay: Transmission electron microscopy of dam liver; details: E17.5
From the text: Block 2 dam liver portions stored in McDowell and Trump’s fixative ([McDowell and Trump 1976]) were processed using a Leica EM TP processor. Briefly, samples were rinsed with buffer, postfixed in 1% osmium tetroxide in 0.1-M phosphate buffer, rinsed in distilled water, dehydrated, and embedded in Ply/Bed® 812 (Polysciences, Inc.) epoxide resin. Blocks were trimmed, and semithin sections ( ∼0.5μm ) were stained with 1% toluidine blue (Poly-scientific R&D Corp.) O in 1% sodium borate to ascertain areas of interest. Ultrathin sections ( […] ) were cut from areas of interest and placed on 200-mesh copper grids and stained with uranyl acetate and lead citrate, and digital images were captured using an Orius® SC1000 side mount camera (Gatan) attached to a Techani T12 transmission electron microscope (TEM) (FEI Company). In general, peroxisomes were smaller than mitochondria and round with a dark, electron-dense, granular matrix and surrounded by a single membrane. […] Samples were analyzed by R.D.K., Ph.D.

O=C(O)C(F)(F)C(F)(F)C(F)(F)C(F)(F)C(F)(F)C(F)(F)C(F)(F)F [PFOA, Perfluorooctanoic acid]
Kidney weight (Pregnant CD-1 mice [1]; E11.5, 1 mg/kg/d): 0.20 ± 0.02 g | Liver weight (Pregnant CD-1 mice [1]; E11.5, 1 mg/kg/d): 2.9 ± 0.2 g | Relative kidney weight (Pregnant CD-1 mice [1]; E11.5, 1 mg/kg/d): 0.51±0.04 % BW | Relative liver weight (Pregnant CD-1 mice [1]; E11.5, 1 mg/kg/d): 7.4±0.5 % BW | Weight at necropsy (Pregnant CD-1 mice [1]; E11.5, 1 mg/kg/d): 38.8 ± 2.4 g | Weight at necropsy (% change from E0.5) (Pregnant CD-1 mice [1]; E11.5, 1 mg/kg/d): 24.7±6.3% | Kidney weight (Pregnant CD-1 mice [1]; E11.5, 5 mg/kg/d): 0.21 ± 0.03 g | Liver weight (Pregnant CD-1 mice [1]; E11.5, 5 mg/kg/d): 4.5 ± 0.5 g | Relative kidney weight (Pregnant CD-1 mice [1]; E11.5, 5 mg/kg/d): 0.51±0.05 % BW | Relative liver weight (Pregnant CD-1 mice [1]; E11.5, 5 mg/kg/d): 11.0±0.9 % BW | Weight at necropsy (Pregnant CD-1 mice [1]; E11.5, 5 mg/kg/d): 40.2 ± 3.5 g | Weight at necropsy (% change from E0.5) (Pregnant CD-1 mice [1]; E11.5, 5 mg/kg/d): 29.6±6.3% | E0.5 weight (Pregnant CD-1 mice [1]; E11.5 group, 1 mg/kg/d): 31.2 ± 3 g | E0.5 weight (Pregnant CD-1 mice [1]; E11.5 group, 5 mg/kg/d): 31.1 ± 3.2 g | Kidney weight (Pregnant CD-1 mice [1]; E17.5, 1 mg/kg/d): 0.22 ± 0.04 g | Liver weight (Pregnant CD-1 mice [1]; E17.5, 1 mg/kg/d): 3.1 ± 0.4 g | Relative kidney weight (Pregnant CD-1 mice [1]; E17.5, 1 mg/kg/d): 0.40±0.04 % BW | Relative liver weight (Pregnant CD-1 mice [1]; E17.5, 1 mg/kg/d): 5.6±0.5 % BW | Weight at necropsy (Pregnant CD-1 mice [1]; E17.5, 1 mg/kg/d): 54.6 ± 5.3 g | Weight at necropsy (% change from E0.5) (Pregnant CD-1 mice [1]; E17.5, 1 mg/kg/d): 92.6±17.1% | Kidney weight (Pregnant CD-1 mice [1]; E17.5, 5 mg/kg/d): 0.24 ± 0.03 g | Liver weight (Pregnant CD-1 mice [1]; E17.5, 5 mg/kg/d): 5.3 ± 0.5 g | Relative kidney weight (Pregnant CD-1 mice [1]; E17.5, 5 mg/kg/d): 0.40±0.03 % BW | Relative liver weight (Pregnant CD-1 mice [1]; E17.5, 5 mg/kg/d): 9.3±0.7 % BW | Weight at necropsy (Pregnant CD-1 mice [1]; E17.5, 5 mg/kg/d): 57.4 ± 6.0 g | Weight at necropsy (% change from E0.5) (Pregnant CD-1 mice [1]; E17.5, 5 mg/kg/d): 98.7±20.2% | E0.5 weight (Pregnant CD-1 mice [1]; E17.5 group, 1 mg/kg/d): 28.5 ± 3.8 g | E0.5 weight (Pregnant CD-1 mice [1]; E17.5 group, 5 mg/kg/d): 29.1 ± 3.4 g | Relative GWG, E11.5 estimate (95% CI) (Pregnant CD-1 mice [1]; 1 mg/kg/d): 16.2 (-0.2, 32.5) % gain from embryonic day 0.5 | Relative GWG, E17.5 Estimate (95% CI) (Pregnant CD-1 mice [1]; 1 mg/kg/d): 44.9 (6.5, 83.3) % gain from embryonic day 0.5 | Relative GWG, E11.5 Estimate (95% CI) relative to VC (Pregnant CD-1 mice [1]; 5 mg/kg/d): 4.3 (-1.8, 10.5) % gain from embryonic day 0.5 | Relative GWG, E11.5 estimate (95% CI) (Pregnant CD-1 mice [1]; 5 mg/kg/d): 21.6 (5.4, 37.9) % gain from embryonic day 0.5 | Relative GWG, E17.5 Estimate (95% CI) (Pregnant CD-1 mice [1]; 5 mg/kg/d): 50.7 (12.2, 89.0) % gain from embryonic day 0.5 | Relative GWG, E11.5 Estimate (95% CI) relative to VC (Pregnant CD-1 mice [1]; 5 mg/kg/d, 5 mg/kg/day): 14.5 (1.4, 27.5) % gain from embryonic day 0.5 and 14.5 % gain from embryonic day 0.5 | Relative GWG, E11.5 Estimate (95% CI) relative to VC (Pregnant CD-1 mice [1]; fourth column (after E17.5 estimate), 1 mg/kg/d): 8.7 (-4.3, 21.8) % gain from embryonic day 0.5 | Relative GWG, E11.5 Estimate (95% CI) relative to VC (Pregnant CD-1 mice [1]; second column, 1 mg/kg/d): -1.1 (-7.4, 5.1) % gain from embryonic day 0.5 | viability ([2]; 1 mg/kg/d, E11.5): 96 ± 3.3% | viability ([2]; 1 mg/kg/d, E17.5): 96.8 ± 4.1% | viability ([2]; 5 mg/kg/d, E11.5): 95.9 ± 5.9% | viability ([2]; 5 mg/kg/d, E17.5): 97.7 ± 3.4% | No. dead embryos (Pregnant CD-1 mice [3]; E11.5, 1 mg/kg/d): 0.0 ± 0.0 | No. implantation sites (Pregnant CD-1 mice [3]; E11.5, 1 mg/kg/d): 15.5 ± 2.7 | No. resorptions (Pregnant CD-1 mice [3]; E11.5, 1 mg/kg/d): 0.6 ± 0.5 | No. viable embryos (Pregnant CD-1 mice [3]; E11.5, 1 mg/kg/d): 14.8 ± 2.5 | No. dead embryos (Pregnant CD-1 mice [3]; E11.5, 5 mg/kg/d): 0.1 ± 0.3 | No. implantation sites (Pregnant CD-1 mice [3]; E11.5, 5 mg/kg/d): 14.5 ± 2.3 | No. resorptions (Pregnant CD-1 mice [3]; E11.5, 5 mg/kg/d): 0.5 ± 0.9 | No. viable embryos (Pregnant CD-1 mice [3]; E11.5, 5 mg/kg/d): 13.9 ± 2.2 | No. dead embryos (Pregnant CD-1 mice [3]; E17.5, 1 mg/kg/d): 0.1 ± 0.3 | No. implantation sites (Pregnant CD-1 mice [3]; E17.5, 1 mg/kg/d): 13.5 ± 2.0 | No. resorptions (Pregnant CD-1 mice [3]; E17.5, 1 mg/kg/d): 0.3 ± 0.5 | No. viable embryos (Pregnant CD-1 mice [3]; E17.5, 1 mg/kg/d): 13.1 ± 2.1 | No. dead embryos (Pregnant CD-1 mice [3]; E17.5, 5 mg/kg/d): 0.0 ± 0.0 | No. implantation sites (Pregnant CD-1 mice [3]; E17.5, 5 mg/kg/d): 13.7 ± 2.1 | No. resorptions (Pregnant CD-1 mice [3]; E17.5, 5 mg/kg/d): 0.3 ± 0.5 | No. viable embryos (Pregnant CD-1 mice [3]; E17.5, 5 mg/kg/d): 13.3 ± 1.9 | % nonviable (Pregnant CD-1 mice [3]; E11.5, 1 mg/kg/d): 0.0 ± 0.0% | % resorbed (Pregnant CD-1 mice [3]; E11.5, 1 mg/kg/d): 4.0 ± 3.3% | % nonviable (Pregnant CD-1 mice [3]; E11.5, 5 mg/kg/d): 0.6 ± 1.9% | % resorbed (Pregnant CD-1 mice [3]; E11.5, 5 mg/kg/d): 3.6 ± 5.9% | % nonviable (Pregnant CD-1 mice [3]; E17.5, 1 mg/kg/d): 0.6 ± 2.1% | % resorbed (Pregnant CD-1 mice [3]; E17.5, 1 mg/kg/d): 2.6 ± 3.9% | % nonviable (Pregnant CD-1 mice [3]; E17.5, 5 mg/kg/d): 0.0 ± 0.0% | % resorbed (Pregnant CD-1 mice [3]; E17.5, 5 mg/kg/d): 2.3 ± 3.4% | Liver ultrastructure (TEM) (maternal liver; 1 mg/kg/d): enlarged hepatocytes with increased cytoplasmic organelles consistent with mitochondria and peroxisomes, evenly dispersed glycogen, and small vacuoles in the centrilobular regions | Liver ultrastructure (TEM) (maternal liver; 5 mg/kg/d): abnormal ultrastructure
